Assays:
HCT116 cells = test: Cellular uptake of Ru (ICP-MS); format: cell-based, human; conditions: HCT116, 15 μM, 24 h; mean ± SEM
Procedure: In these experiments, 1 × 10^6 HCT116 cells were seeded on 100 mm Petri dishes. After overnight preincubation in a drug-free medium, the cells were treated with the Ru complexes (15 μM) for 24 h. Afterward, the cells were extensively washed with PBS (37 °C), detached using 0.25% trypsin, washed twice with ice-cold PBS, and counted by an automatic cell counter. The cell pellets were digested using a microwave acid (HCl) digestion system (CEM Mars). The quantity of Ru taken up by the cells was determined by inductively coupled plasma mass spectrometry (ICP-MS). All experiments were carried out in triplicate.

MRC5pd30 = test: MTT assay on noncancerous cells; format: cell-based, human; conditions: 72 h, mean ± SD
Procedure: (§1) All of the cell lines were cultivated in DMEM medium (high glucose 4.5 g L^–1, PAA, Pasching, Austria) supplemented with gentamycin (50 μg mL^–1, Serva, Heidelberg, Germany) and 10% heat-inactivated fetal bovine serum (PAA). The medium for MRC5pd30 cells was further supplemented by 1% nonessential amino acids (Sigma-Aldrich, Prague, Czech Republic). All cells were cultured as adherent monolayers in a humidified incubator at 37 °C in a 5% CO2 atmosphere and subcultured twice a week with an appropriate plating density.
(§2) In vitro antiproliferative activity of Ru complexes was determined by the MTT or, alternatively, SRB assay as already described,[84] after 72 h of incubation of cells with various concentrations of the Ru complex. The reported IC50 values are an average of three independent experiments, each consisting of three replicates per concentration.

[1] = Solubility in water (D2O) by 1H NMR; format: physicochemical; conditions: D2O, 21°C; sum of chloro and aquo complex after 2 h; 1H NMR, Me2SO2 standard
Procedure: A suspension of the selected ruthenium complex (3–5 mg) in a D2O solution (0.7 mL) containing Me2SO2 as the internal standard[115] (3.36 × 10^–3 M) was vigorously stirred at 21 °C for 2 h. The resulting saturated solution was filtered over celite, transferred into an NMR tube, and analyzed by ^1H NMR and ^31P NMR spectroscopy (delay time = 3 s; number of scans = 20). The concentration (solubility) was calculated by the relative integral (starting complex + aquo complex, C^βH signal in the ^1H spectrum) with respect to Me2SO2 (δ/ppm = 3.14). NMR data are given in the Supporting Information (Figures S36–S47).

[2] = Stability and chloride/water exchange in D2O (NMR); format: physicochemical; conditions: for Aquo species % in D2O after 48h: 48 h at 37 °C; for residual complex % in D2O: after 48 h at 37 °C, sum of chloro and aquo complexes; for Aquo species % in D2O at t0: t0 = after 2 h stirring in D2O
Procedure: The same samples prepared at point (a) were used in this experiment, apart from complex 1 that was dissolved in DMSO-d6/D2O 4:1 v/v solution (0.7 mL; [Ru] = approx. […]) containing Me2SO2 as the standard.[115] After ^1H and ^31P{^1H} NMR analyses described above at point (a) (time = t0), samples were heated at 37 °C for 48 h. After cooling to room temperature, ^1H and ^31P NMR spectra were recorded. The percentage of starting complex + related aquo complex was calculated by the relative integral (C^βH signal in the ^1H spectrum) with respect to Me2SO2 (c = 3.3 × 10^–3 mol·L^–1; δ/ppm = 3.14 in D2O; δ/ppm = 2.95 in DMSO-d6/D2O 4:1 v/v), see Table 2 and S1.

[3] = Octanol/water partition coefficient, shake-flask, UV-vis; format: physicochemical
Procedure: Partition coefficients (Pow); IUPAC: […] A stock solution of the selected ruthenium compound (ca. 2 mg) was prepared by first adding MeOH (50 μL, to help solubilization), followed by octanol-saturated water (2.5 mL). The solution was diluted with octanol-saturated water (ca. 1:3 v/v ratio, cRu ≈ 10^-4 M, so that 1.5 ≤ A ≤ 2.0 at λmax), and its UV-vis spectrum was recorded (Aaq^0). An aliquot of the solution (Vaq = 1.2 mL) was transferred into a test tube, and water-saturated octanol (Vorg = Vaq = 1.2 mL) was added. […] The UV-vis spectrum of the aqueous phase was recorded (Aaq^f), and the partition coefficient was calculated as Pow = ([…], where […] are the absorbances in the aqueous phase before and after partition with the organic phase, respectively.[118] For 1, an inverse procedure was followed, starting from a solution of the compound in water-saturated octanol. The partition coefficient was calculated as Pow = Aorg^f/(Aorg^0 - Aorg^f), where Aorg^0 and Aorg^f are the absorbances in the organic phase before and after partition with the aqueous phase, respectively. The wavelength of the maximum absorption of each compound (280-380 nm range) was used for UV-vis quantitation. The procedure was repeated three times for each sample (from the same stock solution); the results are given as mean ± standard deviation (Table 2).

[4] = system: cancer cell lines (MCF-7, HeLa, 518A2, HCT116, RD) vs noncancerous MRC-5pd30; test: MTT panel: average IC50 of cancer cell lines and selectivity index; format: cell-based, human; conditions: for SI (selectivity index): IC50 for noncancerous MRC-5pd30 vs the average IC50 value of cancer cell lines; for IC50: average of IC50 values related to cancer cell lines
Procedure: as §2

RD = test: MTT antiproliferative assay; format: cell-based, human; conditions: 72 h, mean ± SD
Procedure: as §1, with “density. In vitro antiproliferative activity of Ru complexes was determined by the MTT or, alternatively, SRB assay as already described,[84] after 72 h of incubation of cells with various concentrations of the Ru complex. The reported IC50 values are an average of three independent experiments, each consisting of three replicates per concentration.” for “density.”

HCT116 [5] = test: SRB antiproliferative assay; format: cell-based, human; conditions: SRB test, 72 h; mean ± SD
Procedure: as §2

[6] = Stability and speciation in deuterated cell culture medium (DMEM-d/DMSO-d6, NMR); format: physicochemical; conditions: for Aquo species % in DMEM-d/DMSO-d6 after 24h: 37 °C; for residual complex % in DMEM-d/DMSO-d6: after 24 h at 37 °C, sum of chloro and aquo complexes
Procedure: Powdered DMEM cell culture medium (1000 mg/L glucose and L-glutamine, without sodium bicarbonate and phenol red; D2902; Sigma-Aldrich) was dissolved in D2O (10 mg/mL), according to the manufacturer’s instructions. The solution of deuterated cell culture medium (“DMEM-d”) was treated with Me2SO2 (6.6 × 10^–3 M) and NaH2PO4/Na2HPO4 (0.10 M, pD = 7.5)[120]−[122] and then stored at 4 °C under N2. The selected ruthenium compound (2–3 mg) was dissolved in DMSO-d6 (0.14 mL; 0.18 mL for 4) and then diluted with DMEM-d up to 0.75 mL total volume (cRu ca. 4 × 10^–3 M). The mixture was stirred for 30 min, then filtered over celite, and transferred into an NMR tube. The resulting yellow solution was analyzed by ^1H and ^31P NMR (delay time = 3 s; number of scans = 20) and then heated at 37 °C for 24 h. After cooling to room temperature, NMR analyses were repeated. Compound 1 was instead dissolved in a DMSO-d6/DMEM-d 4:1 v/v solution (0.7 mL; [Ru] = approx. 3 × 10^–3 M) containing Me2SO2 as the internal standard.[115] The percentage of the starting complex + related aquo complex was calculated by the relative integral with respect to Me2SO2 (δ/ppm = 3.16 in DMSO-d6/DMEM-d 1:4 and 1:3 v/v; δ/ppm = 2.95 in DMSO-d6/DMEM-d 4:1 v/v).

MCF-7 = test: MTT antiproliferative assay; format: cell-based, human; conditions: 72 h, mean ± SD
Procedure: as §1, §2

HeLa = test: MTT antiproliferative assay; format: cell-based, human; conditions: 72 h, mean ± SD
Procedure: as §1, §2

HCT116 [7] = test: MTT antiproliferative assay; format: cell-based, human; conditions: 72 h, mean ± SD
Procedure: as §1, §2

518A2 = test: MTT antiproliferative assay; format: cell-based, human; conditions: 72 h, mean ± SD
Procedure: as §1, §2

[8] = set-up: method as in doi:10.1021/acs.organomet.9b00813; conditions: UV-Vis measurements; cited from earlier work

Row | Accumulation of ruthenium, ng Ru/10^6 cells (HCT116 cells) [ng Ru/10^6 cells] | solubility [1] | Aquo species % in D2O after 48h [2] [%] | residual complex % in D2O [2] [%] | Aquo species % in D2O at t0 [2] [%] | log Pow [3] | IC50 (HCT116 [5]) [µM] | Aquo species % in DMEM-d/DMSO-d6 at t0 ([6]; DMSO-d6-DMEM-d 1:4 v/v) [%] | Aquo species % in DMEM-d/DMSO-d6 after 24h ([6]; DMSO-d6-DMEM-d 1:4 v/v) [%] | residual complex % in DMEM-d/DMSO-d6 ([6]; DMSO-d6/DMEM-d 1:4 v/v) [%] | IC50 (MCF-7) [µM] | IC50 (HeLa) [µM] | IC50 (HCT116 [7]) [µM] | Substance | IC50 (MRC5pd30) [µM] | SI (selectivity index) [4] | IC50 [4] [µM] | IC50 (RD) [µM] | IC50 (518A2) [µM] | also measured
1 | 29.6 ± 2.9 | 4.5 10^–3 mol·L^–1 | 92 | 89 | 80 | –0.33 ± 0.07 | 16 ± 1 | 0 | 59 | 51 | 32 ± 4 | 53 ± 4 | 25 ± 2 | [RuCl(κ^3-tpm)(PPh3)(NCMe)]Cl [compound 2] | 76 ± 1 | 2.4 | 32.4 ± 3.8 | 26 ± 5 | 26 ± 4 | 
2 | 58.4 ± 3.0 | 3.4 10^–3 mol·L^–1 | 88 | 100 | 25 | –0.05 ± 0.05 | 20 ± 3 | 0 | 50 | 98 | 32 ± 5 | 54 ± 6 | 30 ± 2 | [RuCl(κ^3-tpm)(PPh3){NNH(CH)3}]Cl [compound 5] | 63 ± 4 | 1.9 | 34 ± 3.6 | 23 ± 2 | 31 ± 3 | 
3 | 27.2 ± 1.1 | 1.9 10^–3 mol·L^–1 | 99 | 100 | 15 |  | 20 ± 2 | 9 | 70 | 100 | 46 ± 7 | 54 ± 14 | 31 ± 2 | [RuCl(κ^3-tpm)(PPh3){N(CH)3C(OH)CH}]Cl [compound 6] | 82 ± 4 | 2.0 | 41.4 ± 7.4 | 38 ± 6 | 38 ± 8 | 
4 |  |  |  |  |  |  |  |  |  |  |  |  |  | [Fe2Cp2(CO)(μ-CO){μ-η^1:η^3-C(3-C6H4OH)CHCNMe2}]CF3SO3 [[FeFe]^+[CF3SO3]^–] |  |  |  |  |  | LogPow [8]: −0.34
5 | 54.9 ± 1.3 | 2.4 10^–3 mol·L^–1 | 70 | 100 | 67 | 0.58 ± 0.06 | 21 ± 3 |  |  |  | 37 ± 7 | 36 ± 1 | 25 ± 2 | [RuCl(κ^3-tpm)(PPh3){NCHNHC(CH)4C}]Cl [compound 4] | 56.6 ± 0.7 | 1.8 | 31.6 ± 3.4 | 25 ± 3 | 35 ± 4 | Aquo species % in DMEM-d/DMSO-d6 at t0 ([6]; DMSO-d6-DMEM-d 1:3 v/v): 0%; Aquo species % in DMEM-d/DMSO-d6 after 24h ([6]; DMSO-d6-DMEM-d 1:3 v/v): 59%; residual complex % in DMEM-d/DMSO-d6 ([6]; DMSO-d6/DMEM-d 1:3 v/v): 93%
